Source: patent US5482945A, “Innovative technique for immunosuppression involving administration of rapamycin loaded formed blood elements” (American Home Products Corporation, priority 1992, dated 1996)
Where two headings read alike, the source gives them in different places.

Experiments:
red blood cells [1] = conditions: cited from earlier work
red blood cells [2] = conditions: cited from earlier work; remark: listed apart in the source
[3] = system: peripheral blood mononuclear cells and erythrocytes; conditions: cited from earlier work
[4] = system: FK-506 binding protein (FKBP); conditions: cited from earlier work
T-lymphocytes = conditions: cited from earlier work
[5] = system: transplanted tissue or organ; conditions: parenteral administration to donor before transplant; cited from earlier work
adjuvant arthritis = conditions: rats; cited from earlier work
erythrocytes = assay: Hemolysis by rapamycin; format: cell-based
[6] = system: restenosis (smooth muscle cell proliferation and internal thickening following vascular injury); conditions: cited from earlier work
[7] = Whole blood to plasma concentration ratio in monkeys receiving rapamycin; format: in vivo; conditions: monkey, read-out: ratio of whole blood to plasma concentrations
Experimental: (§1) In human blood at rapamycin concentrations between 76 and 189 ng/ml, the whole blood and FBE to plasma ratios after 30 minutes incubation at 37° C. were 12±2 and 23.7±3.9 respectively. Similarly, at a concentration of 482 ng/ml, the ratios were 1.1 and 1.3 respectively. The ratios of whole blood to plasma concentrations in monkeys receiving rapamycin was 10±6 and in humans the ratio was 12±2, and indication that a species difference exists between primates and other mammals.

[8] = Equilibrium of rapamycin between formed blood elements (FBE), whole blood and plasma in human blood; format: in vitro ADME; conditions: for Kp: formed blood elements, read-out: FBE to plasma ratio
Experimental: as §1

mouse T-cells = conditions: combination with Cyclosporin A; ionomycin + PMA stimulation; cited from earlier work
[9] = system: humoral (IgE-like) antibodies; conditions: rats, albumin allergic challenge; cited from earlier work
[10] = system: lymphatic leukemia, colon and mammary cancers, melanocarcinoma and ependymoblastoma; conditions: cited from earlier work
[11] = system: experimental allergic encephalomyolitis; conditions: rats; cited from earlier work
graft rejection = conditions: donor pretreatment intravenously, rats; cited from earlier work
[12] = Whole blood to plasma concentration ratio in humans receiving rapamycin; format: in vivo; conditions: human, read-out: ratio of whole blood to plasma concentrations
Experimental: as §1

FKBP = assay: Binding of rapamycin to FKBP in formed blood elements (erythrocytes)
transplant rejection = conditions: cited from earlier work
[13] = Equilibrium of rapamycin between formed blood elements (FBE), whole blood and plasma in rat blood; format: in vitro ADME; conditions: for Kp: formed blood elements, read-out: FBE to plasma ratio
Experimental: In human blood, erythrocytes comprise about 85 to 90 percent of the formed blood elements (microscopically visible). Human whole blood is comprised of about 46% formed blood elements and 54% plasma. Equilibrium of rapamycin between the rapamycin-loaded formed blood elements (FBE) and the plasma is quickly established and is seen to be species dependent. In rat blood containing rapamycin at a concentration of 38 ng/ml, the whole blood and FBE to plasma ratios were 1.3 and 1.7 respectively and at a concentration of 200 ng/ml the ratios were 0.8 and 0.5 respectively.

[14] = rapamycin 76 to 189 ng/ml, 30 minutes incubation at 37° C.

Q: With `C[C@@H]1[C@H](O)[C@@H](C)/C=C/C=C/C=C/C=C/C=C/C=C/C=C/[C@H](O[C@@H]2O[C@H](C)[C@@H](O)[C@H](N)[C@@H]2O)C[C@@H]2O[C@](O)(C[C@@H](O)C[C@@H](O)[C@H](O)CC[C@@H](O)C[C@@H](O)CC(=O)O[C@H]1C)C[C@H](O)[C@H]2C(=O)O` [Amphotericin B] as the compound, how does the “effect on sterols and cell membranes” value (red blood cells [1]) read?
A: Its value is “binds to sterols and perforates cell membranes”.

Q: What does the source list for `COc1cccc2c1C(=O)c1c(O)c3c(c(O)c1C2=O)C[C@@](O)(C(C)=O)C[C@@H]3O[C@H]1C[C@H](N)[C@H](O)[C@H](C)O1` [Daunomycin]?
A: binding to red blood cells (red blood cells [2]; red blood cells first treated with Amphotericin B): will bind daunomycin; binding to red blood cells (red blood cells [2]; untreated red blood cells): will not bind to red blood cells

Q: Which “absorption and retention by peripheral blood mononuclear cells and erythrocytes” value [3] does the source give for `C=CC[C@@H]1/C=C(\C)C[C@H](C)C[C@H](OC)[C@H]2O[C@@](O)(C(=O)C(=O)N3CCCC[C@H]3C(=O)O[C@H](/C(C)=C/[C@@H]3CC[C@@H](O)[C@H](OC)C3)[C@H](C)[C@@H](O)CC1=O)[C@H](C)C[C@@H]2OC` [FK-506] here?
A: Its value is “absorbed and retained”.

Q: What about the “binding with FKBP in the erythrocytes” value [4] of the same compound?
A: The value was “bind reversibly”.

Q: And the “activation of T-lymphocytes” value (T-lymphocytes)?
A: The value was “inhibits the activation of T-lymphocytes”.

Q: What about the “rejection of the transplanted tissue or organ” value [5] of the same compound?
A: The value was “reduce rejection of the transplanted tissue or organ”.

Q: With `O=P1(N(CCCl)CCCl)NCCCO1` (centres unmarked) [cyclophosphamide] as the compound, how does the “rejection of the transplanted tissue or organ” value [5] read?
A: Its value is “reduce rejection of the transplanted tissue or organ”.

Q: Which results are given for `CO[C@H]1C[C@@H]2CC[C@@H](C)[C@@](O)(O2)C(=O)C(=O)N2CCCC[C@H]2C(=O)O[C@H]([C@H](C)C[C@@H]2CC[C@@H](O)[C@H](OC)C2)CC(=O)[C@H](C)/C=C(\C)[C@@H](O)[C@@H](OC)C(=O)[C@H](C)C[C@H](C)/C=C/C=C/C=C/1C` [rapamycin]?
A: immune response in adjuvant arthritis (adjuvant arthritis): inhibits the immune response; hemolysis (erythrocytes): does not cause hemolysis; restenosis [6]: inhibits restenosis; blood plasma ratio [7]: 10 ± 6; blood plasma ratio ([8]; rapamycin 482 ng/ml): 1.1; blood plasma ratio [8, 14]: 12 ± 2; Kp ([8]; rapamycin 482 ng/ml): 1.3; Kp [8, 14]: 23.7 ± 3.9; suppressive activity of Cyclosporin A in T-cell proliferation, IL-2 production and IL-2R expression (mouse T-cells): potentiates the suppressive activity of Cyclosporin A; humoral (IgE-like) antibodies [9]: prevents humoral (IgE-like) antibodies; antitumor activity [10]: antitumor activity; immune response in experimental allergic encephalomyolitis [11]: inhibits the immune response; graft rejection (graft rejection): reduce graft rejection; blood plasma ratio [12]: 12 ± 2; binding with FKBP in formed blood elements (erythrocytes) (FKBP): bind reversibly with the binding protein FKBP; transplant rejection (transplant rejection): inhibition of transplant rejection; blood plasma ratio ([13]; rapamycin 38 ng/ml): 1.3; blood plasma ratio ([13]; rapamycin 200 ng/ml): 0.8; Kp ([13]; rapamycin 38 ng/ml): 1.7; Kp ([13]; rapamycin 200 ng/ml): 0.5; rejection of the transplanted tissue or organ [5]: reduce rejection of the transplanted tissue or organ

Q: For `CC1\C=C/C=C\C=C\C=C\C=C\C=C\C=C\C(OC2OC(C)C(O)C(N)C2O)CC2OC(O)(CC(O)CC(O)CC(O)CC(O)CC(=O)CC(O)CC(=O)OC1C(C)CCC(O)CC(=O)c1ccc(N)cc1)CC(O)C2C(=O)O` (centres unmarked) [vacidin A], which “binding with red blood cells and hemolysis” value (red blood cells [1]) is on record?
A: The value was “bind with red blood cells and cause hemolysis to occur”.

Q: Which “rejection of the transplanted tissue or organ” value [5] does the source give for cyclosporin A here?
A: The value was “reduce rejection of the transplanted tissue or organ”.

Q: Which “rejection of the transplanted tissue or organ” value [5] does the source give for methylprednisone here?
A: The value was “reduce rejection of the transplanted tissue or organ”.
